Tests used:
[1] = target: T1, human recombinant NOP receptor (Homo sapiens, UniProt P41146); test: Receptor binding, displacement of tritiated N/OFQ on CHOhNOP membranes
T1 construct: expressed in transfected cells; host or cells: CHO cells (CHOhNOP), membranes

[2] = target: T1, human recombinant NOP receptor; test: Stimulation of GTP?S binding on CHOhNOP membranes; format: biochemical
mouse vas deferens = test: Inhibition of the twitch induced by electrical stimulation of mouse vas deferens; format: cell-based
Method: The compounds were tested in vitro on Hamster oocytes membranes expressing the human recombinant NOP receptor (CHOhNoP) (receptor binding experiments and GTP?S binding stimulation experiments) and on the mouse vas deferens after electrical stimulation.

[3] = tested on: vas deferens of knockout mice for the NOP receptor (NOP−/−); test: Electrically stimulated vas deferens from NOP receptor knockout mice; format: cell-based, mouse
[4] = target: T2, human recombinant opioid receptor mu (MOP) (Homo sapiens, UniProt P35372); test: Receptor binding on CHO membranes, [3H]-Diprenorphine; conditions: Table 3; CHO cells; [3H]-Diprenorphine
T2 construct: expressed in transfected cells; host or cells: CHO cells, membranes
T2 sequence (P35372 whole entry): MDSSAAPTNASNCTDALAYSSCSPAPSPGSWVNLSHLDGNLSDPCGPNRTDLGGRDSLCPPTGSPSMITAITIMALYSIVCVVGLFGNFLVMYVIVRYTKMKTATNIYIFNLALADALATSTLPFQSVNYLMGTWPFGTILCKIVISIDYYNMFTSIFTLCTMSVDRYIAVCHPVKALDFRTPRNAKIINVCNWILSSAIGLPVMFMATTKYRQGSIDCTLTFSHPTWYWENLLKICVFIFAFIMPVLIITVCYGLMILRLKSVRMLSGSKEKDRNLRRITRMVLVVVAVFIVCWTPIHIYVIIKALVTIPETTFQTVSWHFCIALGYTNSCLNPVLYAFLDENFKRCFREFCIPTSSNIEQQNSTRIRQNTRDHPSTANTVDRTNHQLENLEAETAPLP

[5] = target: T3, human recombinant opioid receptor delta (DOP) (Homo sapiens, UniProt P41143); test: as above; conditions: Table 3; CHO cells; [3H]-Diprenorphine
T3 construct: expressed in transfected cells; host or cells: CHO cells, membranes
T3 sequence (P41143 whole entry): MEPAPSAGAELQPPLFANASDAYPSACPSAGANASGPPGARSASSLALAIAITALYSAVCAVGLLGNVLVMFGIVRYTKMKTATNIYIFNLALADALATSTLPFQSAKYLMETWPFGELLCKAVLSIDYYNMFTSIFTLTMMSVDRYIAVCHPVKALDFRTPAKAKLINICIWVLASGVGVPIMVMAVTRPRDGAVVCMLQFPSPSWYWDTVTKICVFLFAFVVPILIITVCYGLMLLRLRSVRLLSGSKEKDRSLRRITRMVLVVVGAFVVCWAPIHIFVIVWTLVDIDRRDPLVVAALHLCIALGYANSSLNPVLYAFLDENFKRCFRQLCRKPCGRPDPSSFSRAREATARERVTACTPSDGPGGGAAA

[6] = target: T4, human recombinant opioid receptor kappa (KOP) (Homo sapiens, UniProt P41145); test: as above; conditions: Table 3, CHO cells
T4 construct: expressed in transfected cells; host or cells: CHO cells, membranes
T4 sequence (P41145 whole entry): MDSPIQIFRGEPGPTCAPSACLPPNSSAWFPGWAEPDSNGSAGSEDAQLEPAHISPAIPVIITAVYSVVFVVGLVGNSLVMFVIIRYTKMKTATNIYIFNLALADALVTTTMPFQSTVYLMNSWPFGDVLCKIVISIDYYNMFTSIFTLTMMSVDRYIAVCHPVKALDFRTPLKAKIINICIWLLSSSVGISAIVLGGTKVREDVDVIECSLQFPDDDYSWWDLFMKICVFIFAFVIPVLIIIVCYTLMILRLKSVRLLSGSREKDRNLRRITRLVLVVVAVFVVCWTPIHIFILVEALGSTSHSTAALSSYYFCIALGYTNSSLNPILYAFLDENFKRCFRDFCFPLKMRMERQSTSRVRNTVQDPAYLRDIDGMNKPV

mice [7] = test: Tail withdrawal assay in mice; format: in vivo, mouse
Method: (§1) Control animals received one i.c.v. injection of saline (2 μl/mouse). Each point represents the mean±s.e.m. of at least 4 experiments.
1) tail withdrawal assay, according to the experimental protocols described by Calò et al., (Br J Pharmacol 125, 373-378, 1998) and Rizzi et al. (Clin Pharmacol 18, 56, 2004);

mice [8] = test: Food intake in fed mice; format: in vivo, mouse
Text: 2) measurement of food intake in fed animals, as described by Rizzi et al. (National Congress of the Italian Society of Neuroscience and joint Italian-Swedish Neuroscience Meetings, Ischia (Napoli) 1-4 Oct. 2005);

mice [9] = test: Spontaneous locomotor activity in mice; format: in vivo, mouse
Method: as §1
3) assay for measurement of spontaneous locomotor activity, as described by Rizzi et al., (Naunyn Schmiedebergs Arch Pharmacol 363, 161-165, 2001.

[10] = Metabolic stability in mouse plasma; format: in vitro ADME
Method: (§2) Plasma and brain tissue samples were obtained from male Swiss mice (Morini, Reggio Emilia, Italy, 25-30 g). The animal, sacrificed by ether anesthesia, was perfused with physiological heparin solution injected through a needle placed in the left ventricle. Blood was then withdrawn and was centrifuged at 14000×g for 2 minutes at room temperature. After separation from the pellet, the plasma was aliquoted and stocked at −80° C. After blood withdrawal, the animal was perfused further with a physiological solution for 2 minutes before brain removal. The brain tissue was homogenized in 5 vol. (w/v) of Tris/HCl (50 mM, pH 7.4, 0° C.) with a ultra-Turrax (Janke Kunkel, Staufen, FRG) 3 times for 15 seconds each. The supernatant obtained by centrifugation (3000×g for 15 min at 4° C.) was decanted and then stocked at −80° C.
(§3) The protein content of the preparations, determined by the Bradford method, as described in Anal. Biochem., 72, 248-254, 1976, was approximately 8 μg/μl for the brain homogenate and 17 μg/μl for the plasma
(§4) An aliquot of 100 μl solution of each peptide (3 mg/500 μl Tris) was incubated (at a final concentration of […]) with brain homogenate or plasma (450 μl) in a total volume of 1 ml, containing Tris/HCl 50 mM pH 7.4 buffer. Incubation of the aliquots was carried out at 37° C. for various periods up to 240 min. At different incubation times, an aliquot of the solution (100 μl) was removed and the degradation was blocked by addition of 4.5% TFA solution (200 μl). After centrifugation (3000 rpm for 15 minutes) an aliquot (100 μl) of supernatant was injected into RP-HPLC. HPLC analysis was performed in a Kromasil 100-5C18 column (4.6×250 mm) using a Beckman System Gold chromatography system equipped with a variable wave length UV detector.
(§5) The experimental conditions for elution included a gradient analysis with water (solvent A) and acetonitrile (solvent B), both containing 0.1% TFA, at a flow rate of 0.7 ml/min. The following protocol was used for gradient analysis, selected on the basis of the physico-chemical characteristics of the analyte: linear gradient from 5% to 40% B in 20 minutes; linear gradient from 40% to 60% B in 5 minutes; linear gradient from 60% to 5% B in 5 minutes. The eluate was monitored at 220 nm. The half life (T1/2) was obtained by linear regression with the least square method, diagramming the peak areas of each derivative as a function of the incubation times, using at least five points for each analysis.

[11] = Metabolic stability in mouse brain homogenate; format: in vitro ADME; conditions: male, Swiss, pH 7.4, mouse brain homogenate, 37° C., mean±standard deviation, read-out: T½ Brain
Method: as §2, §3, §4, §5

[12] = Table 2, wild type (NOP+/+) mice

T1 sequence (P41146 whole entry): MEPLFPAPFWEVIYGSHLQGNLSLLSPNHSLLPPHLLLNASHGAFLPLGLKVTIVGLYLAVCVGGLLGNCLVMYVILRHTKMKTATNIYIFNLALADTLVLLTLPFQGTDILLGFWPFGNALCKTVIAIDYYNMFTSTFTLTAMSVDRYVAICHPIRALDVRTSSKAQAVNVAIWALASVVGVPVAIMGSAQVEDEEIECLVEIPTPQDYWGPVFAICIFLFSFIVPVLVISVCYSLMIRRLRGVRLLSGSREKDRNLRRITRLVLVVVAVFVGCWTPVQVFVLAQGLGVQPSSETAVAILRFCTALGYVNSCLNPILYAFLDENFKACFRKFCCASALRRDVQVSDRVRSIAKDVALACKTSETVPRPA

What does the source list for `C[C@H](NC(=O)[C@H](CO)NC(=O)[C@H](CCCCN)NC(=O)[C@H](CCCNC(=N)N)NC(=O)C(C)(C)NC(=O)CNC(=O)[C@@H](NC(=O)[C@H](Cc1ccc(F)cc1)NC(=O)CNC(=O)CNC(=O)[C@@H](N)Cc1ccccc1)[C@@H](C)O)C(=O)N[C@@H](CCCNC(=N)N)C(=O)N[C@@H](CCCCN)C(=O)N[C@@H](CCCNC(=N)N)C(=O)N[C@@H](CCCCN)C(=O)N[C@@H](CC(N)=O)C(=O)N[C@@H](CCC(N)=O)C(N)=O` [UFP-112, [(pF)Phe^4,Aib^7,Arg^14,Lys^15]N/OFQ-NH2]?
Receptor binding PKi ([1]; Table 1, membrane of CHOhNOP cells, tritiated N/OFQ): 10.55; pKi NOP ([1]; Table 3, CHO cells, [3H]N/OFQ): 10.55; Stimulation upon binding GTP?S, Agonist pEC50 ([2]; Table 1, membrane of CHOhNOP cells): 10.55; Emax ([2]; read-out: Stimulation upon binding GTP?S, Agonist Emax): 118 ± 9%; Inhibition of the twitch induced by electric stimulation, Agonist Emax (mouse vas deferens; Table 1): −85 ± 2%; Inhibition of the twitch induced by electric stimulation, Agonist pEC50 (mouse vas deferens; Table 1): 9.48; Emax NOP+/+ (mouse vas deferens; [12]): 93 ± 3%; pEC50 NOP+/+ (mouse vas deferens; [12]): 8.94; Kinetics of action and reversibility of the effects after washing (mouse vas deferens; compared with N/OFQ, equi-effective concentrations): much slower; Increase in potency compared to the reference sequence (mouse vas deferens; mouse vas deferens): more than 100 fold; Action in the mouse vas deferens in presence of naloxone (mouse vas deferens; naloxone present): not modified; Inhibitory effect on the contraction induced by electrical stimulation in NOP−/− vas deferens [3]: disappeared; pEC50 NOP−/− ([3]; Table 2): <6; pKi MOP [4]: 7.13; pKi DOP [5]: 6.37; pKi KOP [6]: 8.36; Effect in tail withdrawal assay, i.c.v. (mice [7]; 0.001-0.1 nmol, intracerebroventricular): pronociceptive effects; Effect in tail withdrawal assay, i.t. (mice [7]; 0.001-0.1 nmol, intrathecal): antinociceptive effects; Tail withdrawal effects in NOP−/− mice (mice [7]; NOP−/− mice): absent; Duration of action in tail withdrawal test (mice [7]; equi-effective doses): > 120 min; Potency in vivo relative to N/OFQ (mice [7]; stated for each in vivo assay (tail withdrawal, food intake, locomotor activity)): about 100 fold; Hyperphagic effects in NOP−/− mice (mice [8]; NOP−/− mice): absent; Potency relative to N/OFQ in food intake (mice [8]; fed mice): 100 fold; Effect on food intake (mice [8]; fed mice, equi-effective doses): significant increase; Time after which locomotor effect ended (mice [9]; 0.1 nmol i.c.v.): about 6 h; Effect on spontaneous locomotor activity (mice [9]; i.c.v., N/OFQ 10 nmol, UFP-112 0.1 nmol): inhibited the locomotor activity; half-life at 6 μg/μl ([10]; male, Swiss, mouse, plasma, pH 7.4, mouse plasma, 37° C., mean±standard deviation, read-out: T½ Plasma): 2.78 ± 0.15 h; Plasma T½ compared to N/OFQ ([10]; mouse plasma): almost three-fold longer; half-life at 6 μg/μl [11]: 0.188 ± 0.0233 h

Reference: patent publication US8227414B2 ([…].R.L., priority 2005, dated 2012)
